Experiment [1] relates to MΦ-cTLR4 cells. As to the kind of experiment: ELISA for VEGF-A in MΦ-cTLR4 medium. The class given is cell-based, murine. Conditions: for VEGF expression compared to controls: single treatment (FIG. 22A). How it is done: In order to determine if the MΦ-cTLR4 cells were expressing the key angiogenic molecule VEGF-A, an ELISA was performed to test for VEGF-A levels in MΦ-cTLR4 medium following various treatments (FIG. 22A). […] Since studies have shown human and rat MΦs express increased VEGF with IFN-γ treatment, the response was also tested with this factor.
In general terms: In an ELISA, binding on a coated surface is turned into a signal by an enzyme label.

The subject of experiment [2] is IRF3 phosphorylation in MΦ-cTLR4 cells. As to the kind of experiment: Western blot for p-IRF3 and total IRF3 (MyD88-independent pathway). The class given is cell-based, murine. Conditions: CID 50 nM, LPS 100 ng/mL; compared to vehicle. Here is the method:
(§1) Protein from RAW264.7, MΦ-T2A (vector control cells), and MΦ-cTLR4 cell monolayers were extracted by lysis in Laemmli buffer containing 1× Halt Protease Inhibitor cocktail (Thermo Scientific). Following lysis, samples were boiled and protein concentration was determined by performing a BCA assay from Thermo Scientific. Samples (10-30 μg of lysates) were run on 4-20% Mini-PROTEAN® TGX precast polyacrylamide gels (Bio-Rad). Protein from gels were transferred onto PVDF membranes and probed with the appropriate primary antibody overnight. Membranes were washed between each antibody incubation and subsequently probed with the appropriate HRP-conjugated secondary antibody (Life Technologies). The Clarity Western ECL Substrate (Bio-Rad) was used to detect bands.
To determine if the MΦ-cTLR4 cells were signaling through the MyD88-independent pathway, we tested for phosphorylated IRF3. […] The IRF3 phosphorylation of the CID- and LPS-treated MΦ-cTLR4 cells starts to decrease following the 2 hour timepoint and subsequently reaches similar levels as vehicle at the 6 and 12 hour timepoints.

The test system of experiment [3] is MΦ-cTLR4 cells co-cultured with rat aortic ECs (RAECs). As to the kind of experiment: Co-culture tube formation (angiogenesis) assay. Type of experiment: cell-based. Conditions: CID 50 nM or LPS 100 ng/mL added to the medium. The text has this: Untreated MΦ-cTLR4 cells co-cultured with rat aortic ECs (RAECs), with no added factors to the medium, had the least amount of isolated segments, the least amount of branches, and the most amount of branching interval.

In experiment [4] the test system is MΦ-cTLR4 cells. As to the kind of experiment: Western blot for iNOS in MΦ-cTLR4 cells. Type of experiment: cell-based, murine. The note with it: 24 h treatment; CID 50 nM, LPS 100 ng/mL. Here is the method: as §1
In general terms: A western blot detects proteins with antibodies after separation by electrophoresis.

Experiment [5] relates to NF-κB promoter in MΦ-cTLR4 cells. As to the kind of experiment: Dual-Luciferase NF-κB reporter assay. The class given is cell-based, murine. The note with it: CID 50 nM, 4 hours; compared to vehicle. Here is the method: Two hundred thousand cells/well were seeded in 24-well plates. The following day each well was transfected with a total of 0.8 μg plasmid DNA, which consisted of a 20:1 ratio of pBllX-LUC (NFκB reporter construct):pRL (Renilla luciferase construct). The promoterless pGL4.10 vector was also transfected in a 20:1 ratio of pGL4.10:pRL, as a control. Transfections of each well were performed with 2 μL Lipofectamine 2000 (Invitrogen). The following morning transfection reagents were replaced with fresh serum-free medium and treated with either vehicle (100% EtOH) or CID drug (50 nM) for 4 hours. Cell lysate was harvested and luciferase activity was measured using a Dual-Luciferase® reporter assay kit (Promega) according to manufacturer's instructions. All groups were normalized to Renilla luciferase.
(A reporter such as luciferase makes a cellular process visible.)

Experiment [6] concerns MΦ-cTLR4 cells. As to the kind of experiment: Cytokine profile (ELISA of supernatants) of MΦ-cTLR4 cells. Type of experiment: cell-based, murine. Here is the method:
We tested IL-6 and TNFα concentrations in supernatants of transduced RAW264.7 cells in vitro. Briefly, MΦ-cTLR4 cells (1×106) were plated in each well of a 6-well plate and treated with vehicle (100% EtOH), LPS (100 ng/mL), CID drug (50 nM), or left untreated in DMEM without serum. Supernatants were collected and tested using the mouse IL-6 ELISA Ready-SET-Go! and the mouse TNFα ELISA Ready-SET-Go! Kits (eBioscience) according to the manufacturer's instructions. Plates were read at 450 nm with a 570 nm wavelength subtraction, normalized to standard solutions, and concentrations (pg/mL) were calculated.

Experiment [7] relates to MΦ-cTLR4 cells in Matrigel plug. As to the kind of experiment: In vivo Matrigel plug with MΦ-cTLR4 cells. The arrangement: species or system BALB/c mice. Conditions: 14 day; CID drug 2 mg/kg intraperitoneal every other day; s.c. Matrigel plug. How it is done: Four groups of 4 week old female BALB/c mice (total of 16 mice) were used in this in vivo study. The four groups consisted of: 7 day non-treated mice, 7 day CID-treated mice, 14 day non-treated mice, and 14 day CID-treated mice. At day of injection, pre-plated MΦ-cTLR4 cells were lifted off and counted. 0.5×10^6 cells were s.c. injected mixed in with Matrigel into the right back dorsal area of the mouse. Before placing mouse back in cage, mice were injected with the first intraperitoneal CID drug dose (2 mg/kg mouse weight). Treatment groups were given CID drug injections every other day during the course of the experiment (FIG. 20).

Experiment [8] deals with ERK1/2 phosphorylation in MΦ-cTLR4 cells. As to the kind of experiment: Western blot for p-ERK and total ERK (MyD88-dependent pathway). Type of experiment: cell-based, murine. The note with it: 0 to 60 minutes; CID 50 nM, LPS 100 ng/mL. Here is the method:
as §1
Following LPS stimulation and subsequent TNFα production, the TLR4 pathway leads to activation of NF-κB and the three MAPK pathways through the MyD88-dependent pathway. Both NF-κB and MAPK pathways directly control the transcription of the IL-6 and iNOS inflammatory genes, as well as control the mRNA stability of those transcripts. For the activated MΦ-cTLR4 cells, ERK1/2 phosphorylation is expected if the MyD88 dependent pathway and subsequent downstream TRAF6 activation has occurred. […]

The next experiment relates to bEnd.3 endothelial cells. As to the kind of experiment: Endothelial cell activation by MΦ-cTLR4 conditioned media (flow cytometry for VCAM-1 and ICAM-1). Type of experiment: cell-based, mouse. Conditions: media from MΦ-cTLR4 treated 6 h (TNFα 20 ng/mL, CID 50 nM); bEnd.3 incubated 12 h. How it is done: MΦ-cTRL4 conditioned media, following a 6 hour treatment in 6-well plates (1×10^6 cells/well), was transferred to plated bEnd.3 cells in a 12-well plate (0.2×10^6 cells/well). Before media transfer, TNFα neutralizing and IgG isotype antibody (1 μg/mL) were incubated in media for 15 minutes. Media was then added to bEnd.3 cells for 12 hours. Following incubation, bEnd.3 cells were trypsinized and stained for ICAM-1 and VCAM-1. Cell cytometry was performed on a FACSCanto II Cell Analyzer (BD Biosciences) equipped with 488 nm and 647 nm lasers. Typically, 10,000 cells were analyzed per sample. Experiments were repeated at least three times. Non-specific staining was evaluated using a monoclonal antibody for IgG2b and IgG2a (eBioscience).

Where [9] appears, read: 24 h treatment, CID drug 50 nM, compared to uninduced controls.

For the molecule lipopolysaccharides [LPS], the “VEGF expression compared to controls” value in the experiment with MΦ-cTLR4 cells [1] was “significantly decreased amounts of VEGF”. The “time of activation peak of p-IRF3/total IRF3 ratio” value in experiment [2] worked out at 2 h. Further, in [3], the “branching interval vs untreated co-cultures” value is given as “smaller branching interval”, the isolated segments result is on record as “highest number of isolated segments”, the “number of branches vs untreated co-cultures” value is on record as “much more branches” and the “number of master segments compared to the control” value is listed as “not significantly different”. The “iNOS expression (130 kDa band)” value with MΦ-cTLR4 cells [4] is “substantial increase in iNOS expression”.

Regarding `CC[C@H](C(=O)N1CCCC[C@H]1C(=O)O[C@H](CCc1ccc(OC)c(OC)c1)c1cccc(OCC(=O)NCC(CNC(=O)COc2cccc([C@@H](CCc3ccc(OC)c(OC)c3)OC(=O)[C@@H]3CCCCN3C(=O)[C@@H](CC)c3cc(OC)c(OC)c(OC)c3)c2)CN(C)C)c1)c1cc(OC)c(OC)c(OC)c1` [CID drug, AP20187], the “NF-κB promoter activation (luciferase activity normalized to Renilla)” value in [5] is reported as “increased NF-κB promoter activation”. In the experiment with MΦ-cTLR4 cells [1], the “VEGF expression compared to controls” value is “significantly decreased amounts of VEGF”. Moreover, the “time of activation peak of p-IRF3/total IRF3 ratio” value in experiment [2] was 2 h. In [3], the “branching interval vs untreated co-cultures” value was “smaller branching interval”, the isolated segments result is given as “slightly more isolated segments than the untreated group”, the “number of branches vs untreated co-cultures” value was “much more branches” and the “number of master segments compared to the control” value is on record as “not significantly different”. Moreover, in the experiment with MΦ-cTLR4 cells [6], the “time to upregulation of key pro-inflammatory markers after CID drug addition” value is 6 h. Moreover, in the experiment on MΦ-cTLR4 cells [6] (setting [9]), the IL-6 levels result is “increased” and the TNFα levels entry is given as “increased”. Also, the “time IL-6 levels stayed activated” value in the experiment on MΦ-cTLR4 cells [6] (constant CID drug (50 nM) in media) came to 72 h. In addition, in the experiment with MΦ-cTLR4 cells [6] (constant CID drug (50 nM) in media, changed every 24 h), the “time elevated levels of TNFα, IL-6 and iNOS are maintained” value is “at least 48 hours”. Further, in the experiment with MΦ-cTLR4 cells [6] (titration 50 nM-250 nM, 24 h treatment), the “dose producing the maximum activation of MΦ-cTLR4 cells (IL-6 ELISA)” value was “at least 50 nM”. For the same molecule, the “co-localization of GFP MΦ-cTLR4 cells and iNOS regions in plug” value in experiment [7] is reported as “occurrences of GFP/iNOS co-localization”. In addition, the “ERK1/2 phosphorylation (p-ERK/total ERK ratio relative to zero timepoint)” value in [8] was “upregulation of ERK1/2 phosphorylation at the 5 minute timepoint”. Besides, the “iNOS expression (130 kDa band)” value in the experiment on MΦ-cTLR4 cells [4] is “much lower intensity than the LPS-treated cells”. In the experiment with bEnd.3 endothelial cells, the “EC positive for ICAM-1” value came out at 64.4% and the “EC positive for VCAM-1” value is reported as 93.7%.

B1: TNFα: recombinant mouse TNFα purchased from Sigma (protein)
chain: LRSSSQNSSDKPVAHVVANHQVEEQLEWLSQRANALLANGMDLKDNQLVVPADGLYLVYSQVLFKGQGCPDYVLLTHTVSRFAISYQEKVNLLSAVKSPCPKDTPEGAELKPWYEPIYLGGVFQLEKGDQLSAEVNLPKYLDFAESGQVYFGVIAL
Turning to B1, in the experiment with bEnd.3 endothelial cells, the “EC positive for ICAM-1” value was 57.2% and the “EC positive for VCAM-1” value is recorded as 93.5%.

B2: IFN-γ: cytokine IFN-γ used to treat MΦ-cTLR4 cells (protein, UniProt P01580 23-155, looked up)
Interferon gamma: HGTVIESLESLNNYFNSSGIDVEEKSLFLDIWRNWQKDGDMKILQSQIISFYLRLFEVLKDNQAISNNISVIESHLITTFFSNSKAKKDAFMSIAKFEVNNPQVQRQAFNELIRVVHQLLPESSLRKRKRSRC
In the case of B2, the “VEGF compared to the control, IFN-γ alone or in cocktail” value with MΦ-cTLR4 cells [1] (IFN-γ alone or cocktail with CID or LPS (FIG. 22B)) is reported as “significant decrease in VEGF”.

Source of the values: US20190008897A1, “COMPOSITIONS AND METHODS FOR PRODUCING PRO-INFLAMMATORY MACROPHAGES” (UNIVERSITY OF WASHINGTON, priority 2015, published 2019).
